ChEMBL document CHEMBL6096697, “Structure-Guided Discovery of Novel N4-(Substituted Thiazol-2-yl)-N2-(4-Substituted phenyl)pyrimidine-2,4-Diamines as Potent CDK2 and CDK9 Dual Inhibitors with High Oral Bioavailability” (J Med Chem, 2025)
The source made the active and inactive calls. The calls are words filed in the database; no cut-off is given here.

Key:
[1] = Selectivity index, ratio of IC50 for CDK1/cyclin B (unknown origin) using […] to IC50 for CDK2/cyclin A (unknown origin) using […]
[2] = system: HT-29; experiment: Antiproliferative activity against human HT-29 cells assessed as cell growth inhibition incubated for 48 hrs by MTT assay; format: functional, cell-based; conditions: HT-29, 48 h
[3] = system: HeLa; experiment: Induction of apoptosis in human HeLa cells assessed as late apoptotic cells at 1.8 uM incubated for 24 hrs by PI staining based flow cytometry (reference value: 3.85 %); format: functional
[4] = system: HCT-116; experiment: Induction of apoptosis in human HCT-116 cells assessed as early apoptotic cells at 0.8 uM incubated for 24 hrs by PI staining based flow cytometry (reference value: 0.19 %); format: functional
[5] = system: HCT-116; experiment: Induction of apoptosis in human HCT-116 cells assessed as necrotic cells at 0.4 uM incubated for 24 hrs by PI staining based flow cytometry (reference value: 18.9 %); format: functional
[6] = Cmax in Sprague-Dawley rat at 10 mg/kg, po measured for 36 hrs by MRM analysis; format: ADME, organism-based; conditions: in vivo
[7] = system: HCT-116; experiment: Antitumor activity against human HCT-116 cells xenografted in Balb/c-nu nude mouse at 70 mg/kg/day, po treated for 7 days consecutively relative to control; format: functional; conditions: HCT-116, 168 h, time 7 day, read-out: TGI
[8] = system: HCT-116; experiment: Induction of cell cycle arrest in human HCT-116 cells assessed as accumulation at G1/G0 phase at 0.4 uM incubated for 24 hrs by PI staining based flow cytometry (reference value: 58.29 +/- 2.01 %); format: functional
[9] = system: HeLa; experiment: Induction of apoptosis in human HeLa cells assessed as increase in cleaved PARP level upto 3.6 uM incubated for 24 hrs by Western blot analysis; format: functional, cell-based
[10] = MRT (0 to infinity) in Sprague-Dawley rat at 2 mg/kg, iv measured for 36 hrs by MRM analysis; format: ADME, organism-based; conditions: in vivo
[11] = system: HeLa; experiment: Induction of apoptosis in human HeLa cells assessed as viable cells at 1.8 uM incubated for 24 hrs by PI staining based flow cytometry (reference value: 68.9 %); format: functional; conditions: read-out: Activity
[12] = system: A549; experiment: Antiproliferative activity against human A549 cells assessed as cell growth inhibition incubated for 48 hrs by MTT assay; format: functional, cell-based; conditions: A549, 48 h
[13] = system: HCT-116; experiment: Induction of cell cycle arrest in human HCT-116 cells assessed as accumulation at G2/M phase at 0.8 uM incubated for 24 hrs by PI staining based flow cytometry (reference value: 20.6 +/- 3.38 %); format: functional
[14] = system: HCT-116; experiment: Induction of cell cycle arrest at G2/M phase in human HCT-116 cells assessed as decrease in p-Cdc2 level incubated for 48 hrs by Western blot analysis; format: functional, cell-based; conditions: dose <= 0.8 µM
[15] = system: HCT-116; experiment: Induction of apoptosis in human HCT-116 cells assessed as viable cells at 0.4 uM incubated for 24 hrs by PI staining based flow cytometry (reference value: 79.4 %); format: functional; conditions: read-out: Activity
[16] = system: HCT-116; experiment: Induction of cell cycle arrest in human HCT-116 cells assessed as accumulation at sub-G1 phase at 0.2 uM incubated for 24 hrs by PI staining based flow cytometry (reference value: 2.45 +/- 0.49 %); format: functional
[17] = system: HeLa; experiment: Induction of cell cycle arrest in human HeLa cells assessed as accumulation at sub-G1 phase at 0.9 uM incubated for 24 hrs by PI staining based flow cytometry (reference value: 1.89 +/- 0.56 %); format: functional
[18] = Inhibition of CDK6/cyclin D (unknown origin) using […] incubated for 40 mins in presence of ATP by Kinase-Glo assay; set-up: species or system Homo sapiens
[19] = system: HCT-116; experiment: Induction of apoptosis in human HCT-116 cells assessed as increase in p53 level upto 0.8 uM incubated for 24 hrs by Western blot analysis; format: functional, cell-based
[20] = system: HeLa; experiment: Induction of apoptosis in human HeLa cells assessed as early apoptotic cells at 1.8 uM incubated for 24 hrs by PI staining based flow cytometry (reference value: 0.8 %); format: functional
[21] = Toxicity in Sprague-Dawley rat allografted with rat C6 cells assessed as obvious signs of toxicity at 70 mg/kg/day, po treated for 2 weeks; format: organism-based; conditions: in vivo, 336 h
[22] = system: HeLa; experiment: Induction of cell cycle arrest in human HeLa cells assessed as accumulation at G1/G0 phase at 1.8 uM incubated for 24 hrs by PI staining based flow cytometry (reference value: 57.63 +/- 1.7 %); format: functional
[23] = system: HeLa; experiment: Induction of cell cycle arrest in human HeLa cells assessed as accumulation at G1/G0 phase at 3.6 uM incubated for 24 hrs by PI staining based flow cytometry (reference value: 57.63 +/- 1.7 %); format: functional
[24] = system: HCT-116; experiment: Induction of apoptosis in human HCT-116 cells assessed as total apoptotic cells at 0.8 uM incubated for 24 hrs by PI staining based flow cytometry (reference value: 1.30 %); format: functional
[25] = system: HCT-116; experiment: Effect on Bax level in human HCT-116 cells upto 0.8 uM incubated for 24 hrs by Western blot analysis; format: functional, cell-based
[26] = system: HCT-116; experiment: Induction of cell cycle arrest at G2/M phase in human HCT-116 cells assessed as decrease in cyclin B1 level incubated for 48 hrs by Western blot analysis; format: functional, cell-based; conditions: dose <= 0.8 µM
[27] = system: HeLa; experiment: Induction of apoptosis in human HeLa cells assessed as necrotic cells at 3.6 uM incubated for 24 hrs by PI staining based flow cytometry (reference value: 25.5 %); format: functional
[28] = system: HeLa; experiment: Induction of apoptosis in human HeLa cells assessed as total apoptotic cells at 3.6 uM incubated for 24 hrs by PI staining based flow cytometry (reference value: 4.65 %); format: functional
[29] = target: Cyclin-dependent kinase 7/ cyclin H (Homo sapiens, UniProt P50613); experiment: Inhibition of CDK7/cyclin H (unknown origin) using […] incubated for 40 mins in presence of ATP by Kinase-Glo assay; format: protein-complex assay
[30] = system: HCT-116; experiment: Induction of apoptosis in human HCT-116 cells assessed as viable cells at 0.2 uM incubated for 24 hrs by PI staining based flow cytometry (reference value: 79.4 %); format: functional; conditions: read-out: Activity
[31] = system: HeLa; experiment: Induction of apoptosis in human HeLa cells assessed as increase in p53 level upto 3.6 uM incubated for 24 hrs by Western blot analysis; format: functional, cell-based
[32] = system: HeLa; experiment: Effect on Bax level in human HeLa cells upto 3.6 uM incubated for 24 hrs by Western blot analysis; format: functional, cell-based
[33] = system: HCT-116; experiment: Induction of cell cycle arrest in human HCT-116 cells assessed as accumulation at G2/M phase at 0.4 uM incubated for 24 hrs by PI staining based flow cytometry (reference value: 20.6 +/- 3.38 %); format: functional
[34] = Apparent volume of distribution in Sprague-Dawley rat at 10 mg/kg, po measured for 36 hrs by MRM analysis; format: ADME, organism-based; conditions: in vivo
[35] = Clearance in Sprague-Dawley rat at 10 mg/kg, po measured for 36 hrs by MRM analysis; format: ADME, organism-based; conditions: in vivo
[36] = MRT (0 to t) in Sprague-Dawley rat at 2 mg/kg, iv measured for 36 hrs by MRM analysis; format: ADME, organism-based; conditions: in vivo
[37] = target: Cyclin-dependent kinase 4/cyclin D1 (Homo sapiens, UniProt P11802); experiment: Inhibition of CDK4/cyclin D (unknown origin) using […] incubated for 40 mins in presence of ATP by Kinase-Glo assay; format: protein-complex assay
Chain of Cyclin-dependent kinase 4/cyclin D1 (P11802 whole entry): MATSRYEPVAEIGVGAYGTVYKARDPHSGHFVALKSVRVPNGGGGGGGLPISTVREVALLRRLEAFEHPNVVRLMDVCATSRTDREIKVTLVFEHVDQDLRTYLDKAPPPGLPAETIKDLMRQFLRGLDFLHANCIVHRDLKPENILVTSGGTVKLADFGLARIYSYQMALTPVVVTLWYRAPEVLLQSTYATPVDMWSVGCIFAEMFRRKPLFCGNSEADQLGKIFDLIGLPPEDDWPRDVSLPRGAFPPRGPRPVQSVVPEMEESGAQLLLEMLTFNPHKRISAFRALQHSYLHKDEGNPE
Chain of Cyclin-dependent kinase 4/cyclin D1 (P24385 whole entry, further chain): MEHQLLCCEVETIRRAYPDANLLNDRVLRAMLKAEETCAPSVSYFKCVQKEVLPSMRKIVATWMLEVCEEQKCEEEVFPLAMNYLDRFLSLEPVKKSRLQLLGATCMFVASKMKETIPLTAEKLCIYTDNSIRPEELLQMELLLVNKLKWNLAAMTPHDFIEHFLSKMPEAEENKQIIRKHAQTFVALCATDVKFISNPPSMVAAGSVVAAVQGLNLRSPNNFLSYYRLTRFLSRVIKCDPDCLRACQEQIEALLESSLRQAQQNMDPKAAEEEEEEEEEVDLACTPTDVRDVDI

Chain of Cyclin-dependent kinase 7/ cyclin H (P51946 whole entry): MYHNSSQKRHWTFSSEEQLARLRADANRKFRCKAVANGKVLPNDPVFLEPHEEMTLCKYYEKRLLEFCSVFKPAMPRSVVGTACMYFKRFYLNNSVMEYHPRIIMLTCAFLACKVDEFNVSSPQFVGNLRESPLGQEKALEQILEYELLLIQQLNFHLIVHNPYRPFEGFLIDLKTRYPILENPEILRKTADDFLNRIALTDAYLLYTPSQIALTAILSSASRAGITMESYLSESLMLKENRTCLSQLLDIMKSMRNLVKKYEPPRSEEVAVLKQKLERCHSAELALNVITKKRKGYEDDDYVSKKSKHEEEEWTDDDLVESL
Chain of Cyclin-dependent kinase 7/ cyclin H (P50613 whole entry): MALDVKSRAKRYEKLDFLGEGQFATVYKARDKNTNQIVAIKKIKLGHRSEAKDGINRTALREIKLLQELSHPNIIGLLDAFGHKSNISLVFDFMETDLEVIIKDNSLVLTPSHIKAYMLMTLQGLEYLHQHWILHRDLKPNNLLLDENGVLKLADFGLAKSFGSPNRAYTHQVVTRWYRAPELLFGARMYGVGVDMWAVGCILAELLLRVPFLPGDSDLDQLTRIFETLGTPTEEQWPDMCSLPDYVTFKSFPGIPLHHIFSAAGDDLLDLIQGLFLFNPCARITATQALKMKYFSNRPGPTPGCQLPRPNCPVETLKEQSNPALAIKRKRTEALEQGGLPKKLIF

With `Cc1cnc(Nc2ccc(S(N)(=O)=O)cc2)nc1Nc1nccs1` the Ratio IC50 [1] was 13, the IC50 [2] was 3.62 µM and the Activity [3] was 25.9%. For the same compound, the Activity [4] was 15.5%, the Activity [5] was 4.8% and the Cmax [6] was 21.1 ng/mL. For the same compound, the inhibition in vivo at 70 mg/kg/day [7] was 67%, the Activity [8] was 44.9% and the Activity [9] was “Active”. The MRT inf [10] was 2.8 h, the viability at 1.8 µM [11] was 11.3% and the IC50 [12] was greater than 30 µM. For the same compound, the Activity [13] was 37.16%, the Activity [14] was “Dose-dependent-effect” and the viability at 0.4 µM [15] was 54.4%. It also gave an Activity [16] of 0.56%, an Activity [17] of 1.81% and an IC50 [18] of 3.25 µM. The Activity [19] was “Active”, the Activity [20] was 62.6% and the Activity [21] was “Non-toxic”. For the same compound, the Activity [22] was 50.55%, the Activity [23] was 39.16% and the Activity [24] was 43.2%. The Activity [25] was “No effect”, the Activity [26] was “Dose-dependent-effect” and the Activity [27] was 0.72%. The Activity [28] was 88.3%, the IC50 [29] was 0.215 µM and the viability at 0.2 µM [30] was 63.1%. The Activity [31] was “Active”, the Activity [32] was “No effect” and the Activity [33] was 33.27%. For the same compound, the Vz [34] was 398.7 L/kg, the CL/F [35] was 1180 mL/min/kg and the MRT last at 36 h [36] was 2.7 h. It also gave an IC50 [37] of 0.942 µM.
